Measured values reported in patent publication US12409184B2, “Iloprost compositions and formulations thereof” (BTG INTERNATIONAL INC., priority 2020, dated 2025).

Test system: subjects with symptomatic Raynaud's Phenomenon (RP) secondary to Systemic Sclerosis (SSc)
Experiment: Example 1 double-blind placebo-controlled study, ePRO diary efficacy on symptomatic RP attacks
Type: in vivo, human
Details: for Weekly Frequency of Symptomatic RP Attacks, Treatment comparison of change vs placebo, LS mean difference in change: ANCOVA, N = 17 per group, p 0.8498
Excerpt: This was a multicenter, double-blind, randomized, placebo-controlled study to provide an initial evaluation of the effect of iloprost on the symptomatic relief of RP attacks in subjects with SSc. As a pilot study, it was not powered to provide a definitive estimate of the effect of iloprost. Importantly, this study tested the feasibility of collecting the study endpoints and logistics of study operations that included, among other things, an electronic patient-reported outcomes (ePRO) diary for the evaluation of subject response to the treatment, as well as the infusion workflow for this multiday treatment. Subjects were allowed to continue receiving stable standard of care therapies for the management of symptomatic RP (e.g., calcium channel blockers, angiotensin-converting enzyme inhibitors, statins, fluoxetine, and low-dose acetylsalicylic acid) or may have participated without the use of background standard of care therapies.
The primary objective was to evaluate the efficacy of iloprost compared to placebo on the change in the weekly frequency of symptomatic Raynaud's Phenomenon (RP) attacks from baseline in subjects with symptomatic RP secondary to Systemic Sclerosis (SSc). The exploratory objectives were the following: • To evaluate the efficacy of iloprost compared to placebo on the severity of RP attack symptoms • To evaluate the efficacy of iloprost compared to placebo on the Raynaud's Condition Score • To evaluate the efficacy of iloprost compared to placebo on hand function as assessed by the Cochin Hand Function Scale (CHFS) • To evaluate the safety and tolerability of iloprost • To evaluate the efficacy of iloprost compared to placebo on symptomatic RP attack duration • To evaluate the efficacy of iloprost compared to placebo on the worst pain associated with symptomatic RP • To evaluate the efficacy of iloprost compared to placebo on the subject assessment of overall improvement in symptomatic RP • To evaluate the pharmacokinetics (PK) of iloprost in subjects with symptomatic RP secondary to SSc
The study consisted of an up to 30-day screening period during which subjects completed a daily ePRO diary to record information regarding all symptomatic RP attacks (e.g., severity of symptoms, duration, and hand function). […] The baseline ePRO diary completion period may have been extended beyond 10 days in order to accommodate the preferred Monday through Friday dosing schedule. The ePRO symptomatic RP attack data from this time period were used for the calculation of the baseline frequency of symptomatic RP attacks.
Subjects were randomized in a 1:1 ratio to iloprost injection for IV use or placebo. Randomization was stratified based on the use of phosphodiesterase inhibitors at screening. Study drug administration began on Day 1, and subjects received study drug for 5 consecutive days (e.g., Monday through Friday) as an IV infusion over 6 hours each day via a peripheral line (NovaCath™ Integrated IV Catheter System) or a peripherally inserted central catheter using an infusion pump.
On Day 1, study drug was initiated at a starting dose of 0.5 ng/kg/min, and dose increases occurred every 30 minutes (+5 minutes) in increments of 0.5 ng/kg/min up to 2.0 ng/kg/min or the individual tolerated dose. If dose-limiting adverse events (e.g., headache, flushing, jaw pain, myalgia, nausea, or vomiting) occurred that could not be tolerated by the subject, or if the subject experienced symptomatic hypotension, then the dose was reduced in a step-wise manner by 0.5 ng/kg/min every 30 minutes (+5 minutes) until a tolerated dose was determined or the infusion was stopped until the symptoms resolved at which point the study drug was reinitiated at a previously tolerated dose. If symptomatic hypotension or a dose-limiting adverse event occurred during administration of iloprost at the starting dose (i.e., 0.5 ng/kg/min), the infusion was reduced to 0.25 ng/kg/min. […]

Compound: CC#CCC(C)[C@H](O)/C=C/[C@@H]1[C@H]2C/C(=C/CCCC(=O)O)C[C@H]2C[C@H]1O (stereo partly drawn) [Iloprost, (5E)-5-[(3aS,4R,5R,6aS)-5-hydroxy-4-[(E,3S)-3-hydroxy-4-methyloct-1-en-6-ynyl]-3,3a,4,5,6,6a-hexahydro-1H-pentalen-2-ylidene]pentanoic acid]
- Average Overall Severity of Symptomatic RP Attacks, Baseline, Mean (11-point NRS (0 to 10), before treatment, N = 17): 5.30
- Average Overall Severity of Symptomatic RP Attacks, Treatment comparison of change vs placebo, LS mean difference in change (11-point NRS, p 0.4409): −0.47
- Weekly Frequency of Symptomatic RP Attacks, Treatment comparison of change vs placebo, LS mean difference in change: −0.77
- Weekly Frequency of Symptomatic RP Attacks, Treatment comparison of change vs placebo, LS mean difference in change (listed as iloprost): not statistically significant
- Exploratory endpoints (overall severity, Raynaud's Condition Score, weekly duration, worst symptoms, PGI-S and PGI-C): differences in the iloprost group compared to placebo (baseline to double-blind endpoint): not statistically significant
- Weekly Frequency of Symptomatic RP Attacks, Treatment comparison of change vs placebo, LS mean difference in change (treatment effect) (subgroup Randomization Date After 3 Jun. 2019, p 0.7116): 2.04
